Experimental data taken from article PMC3559838 (PLoS ONE, 2013).
Like-named read-outs stand apart in the source and are kept apart here.

What was measured:
HepG2 cells = assay: MTS growth inhibition assay; type: cell-based, human; details: Homo sapiens, HepG2, 72 h
Procedure: To the other plate, equal molar concentrations of belinostat-G were added similarly. After 72 h, cells were stained with Gentian Violet paint (0.5% w/v; B.P.) and assessed for viability. […] After incubating 24 h, 100-µL drug solution or blank medium was added into each well of 96-well plates. 72 h later, 20 µL of MTS/PES was added into each well for incubation for 3 h. OD values are measured on wavelength 490 nm. Cell growth inhibition was calculated based on the […] with subtraction of background reading for only medium containing wells. The growth inhibition was defined as the percentage of the average […] from drug-treated wells over that from control wells without treatment. The experiment was done in triplicates. IC50 values were calculated using GraphPad PRISM software (GraphPad Software, Inc., La Jolla, CA, USA).

UGT1A1 = target: T1, UGT1A1 (Homo sapiens, UniProt P22309); assay: UGT supersome screening and kinetic analysis; type: in vitro ADME; details: 37°C
T1 sequence (P22309 26-533): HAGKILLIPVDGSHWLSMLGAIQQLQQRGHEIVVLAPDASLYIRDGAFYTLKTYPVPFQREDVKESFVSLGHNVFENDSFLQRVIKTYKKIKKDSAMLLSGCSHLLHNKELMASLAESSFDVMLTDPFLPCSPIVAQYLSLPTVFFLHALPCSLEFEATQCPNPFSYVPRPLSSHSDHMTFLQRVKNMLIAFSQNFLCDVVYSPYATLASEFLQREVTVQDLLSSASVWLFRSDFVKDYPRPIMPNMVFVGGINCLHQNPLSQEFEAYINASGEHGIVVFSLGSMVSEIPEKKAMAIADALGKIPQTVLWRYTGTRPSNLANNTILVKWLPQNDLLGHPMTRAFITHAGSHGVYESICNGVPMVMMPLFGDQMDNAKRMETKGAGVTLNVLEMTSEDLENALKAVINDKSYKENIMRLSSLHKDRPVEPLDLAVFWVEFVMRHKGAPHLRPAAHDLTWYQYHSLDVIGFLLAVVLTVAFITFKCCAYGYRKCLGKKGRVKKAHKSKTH
Procedure: Plots of substrate concentration, S (X axis) versus v (Y axis) were then constructed. Km and Vmax were calculated using the Michaelis-Menten equation (GraphPad software, Inc., San Diego, CA, USA).

UGT1A3 = target: T2, UGT1A3 (Homo sapiens, UniProt P35503); assay: UGT supersome screening; type: in vitro ADME; details: UGT1A3 supersomes, 10 µM belinostat, 37°C
T2 construct: purchased BD Gentest
Procedure: (§1) A typical incubation consisted of 50 µg of UGT, 2 mM UDPGA (UGT Reaction Solution A), 50 mM Tris-HCl, 8 mM MgCl2 and 0.025 mg/ml alamethicin (UGT Reaction Solution B) in a final incubation volume of 100 µL. Before the addition of substrate, the incubation mixture was prewarmed and equilibrated for 5 min at 37°C. […] The incubation mixture was vortexed and centrifuged (10,060 g) at 4°C for 10 min, and the supernatants were analyzed. Insect microsomes without UGT cDNA served as negative control. […] Incubations were performed as described above. Three independent experiments were performed for kinetic analysis.

UGT1A8 = target: T3, UGT1A8 (Homo sapiens, UniProt Q9HAW9); assay: UGT supersome screening; type: in vitro ADME; details: UGT1A8 supersomes, 10 µM belinostat, 37°C
T3 construct: purchased BD Gentest
Procedure: as §1

UGT2B4 = target: T4, UGT2B4 (Homo sapiens, UniProt P06133); assay: UGT supersome screening; type: in vitro ADME; details: UGT2B4 supersomes, 10 µM belinostat, 37°C
T4 construct: purchased BD Gentest
Procedure: as §1

[1] = tested on: human A2780 ovarian cancer cells; design: method as in Plumb et al., 2003; Investigator's Brochure, 2004; details: A2780 xenografts, 10 mg/kg/day IP once daily for 7 days; ref Plumb et al., 2003; Investigator's Brochure, 2004; cited from earlier work
[2] = tested on: HCT116 colon cancer cells; design: method as in Plumb et al., 2003; Investigator's Brochure, 2004; details: HCT116 xenografts, 40 mg/kg/day IP once daily for 7 days; ref Plumb et al., 2003; Investigator's Brochure, 2004; cited from earlier work
[3] = tested on: histone H4 acetylation in peripheral blood mononuclear cells (PBMC) and tumor tissue; design: method as in Plumb et al., 2003; details: ref Plumb et al., 2003, cited from earlier work
[4] = design: method as in Investigator's Brochure, 2004; details: arginine formulation, human blood ex vivo; ref Investigator's Brochure, 2004; cited from earlier work
[5] = design: method as in Investigator's Brochure, 2004; details: following 5 or 7 days of treatment; ref Investigator's Brochure, 2004; cited from earlier work
[6] = design: method as in Plumb et al., 2003; details: dogs, 45 minute IV infusion of 50 mg/kg; ref Plumb et al., 2003; cited from earlier work
[7] = design: method as in Investigator's Brochure, 2004; details: rats, 100 mg/kg/day, both formulations; ref Investigator's Brochure, 2004; cited from earlier work
[8] = design: method as in Investigator's Brochure, 2004; details: dogs, ref Investigator's Brochure, 2004, cited from earlier work
[9] = cited from earlier work
CYP2C8 = tested on: CYP2C8; design: method as in protocol pharmaceutical information; details: ref protocol pharmaceutical information; cited from earlier work
[10] = design: method as in protocol pharmaceutical information; details: ref protocol pharmaceutical information; cited from earlier work
[11] = human, in vivo; cited from earlier work
[12] = 150 mg/m2, 30-minute IV infusion, ref phase 1 study currently underway
[13] = 300 mg/m2, 30-minute IV infusion, ref phase 1 study currently underway
[14] = 600 mg/m2, 30-minute IV infusion, ref phase 1 study currently underway
[15] = 900 mg/m2, 30-minute IV infusion, ref phase 1 study currently underway
[16] = 1200 mg/m2, 30-minute IV infusion, ref phase 1 study currently underway

T4 sequence (P06133 24-528): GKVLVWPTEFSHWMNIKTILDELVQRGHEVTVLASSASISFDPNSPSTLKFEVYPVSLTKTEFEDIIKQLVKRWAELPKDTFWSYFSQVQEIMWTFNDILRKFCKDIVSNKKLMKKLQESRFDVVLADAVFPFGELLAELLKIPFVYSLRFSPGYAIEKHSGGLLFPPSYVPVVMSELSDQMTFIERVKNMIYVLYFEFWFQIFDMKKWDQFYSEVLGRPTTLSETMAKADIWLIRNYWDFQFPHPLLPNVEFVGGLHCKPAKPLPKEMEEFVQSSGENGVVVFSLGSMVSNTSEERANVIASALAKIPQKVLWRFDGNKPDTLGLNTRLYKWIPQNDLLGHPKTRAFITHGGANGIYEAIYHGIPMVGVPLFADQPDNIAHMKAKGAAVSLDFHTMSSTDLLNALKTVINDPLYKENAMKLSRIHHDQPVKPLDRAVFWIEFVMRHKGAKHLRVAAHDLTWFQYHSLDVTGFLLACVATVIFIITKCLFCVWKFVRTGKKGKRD
T3 sequence (Q9HAW9 26-530): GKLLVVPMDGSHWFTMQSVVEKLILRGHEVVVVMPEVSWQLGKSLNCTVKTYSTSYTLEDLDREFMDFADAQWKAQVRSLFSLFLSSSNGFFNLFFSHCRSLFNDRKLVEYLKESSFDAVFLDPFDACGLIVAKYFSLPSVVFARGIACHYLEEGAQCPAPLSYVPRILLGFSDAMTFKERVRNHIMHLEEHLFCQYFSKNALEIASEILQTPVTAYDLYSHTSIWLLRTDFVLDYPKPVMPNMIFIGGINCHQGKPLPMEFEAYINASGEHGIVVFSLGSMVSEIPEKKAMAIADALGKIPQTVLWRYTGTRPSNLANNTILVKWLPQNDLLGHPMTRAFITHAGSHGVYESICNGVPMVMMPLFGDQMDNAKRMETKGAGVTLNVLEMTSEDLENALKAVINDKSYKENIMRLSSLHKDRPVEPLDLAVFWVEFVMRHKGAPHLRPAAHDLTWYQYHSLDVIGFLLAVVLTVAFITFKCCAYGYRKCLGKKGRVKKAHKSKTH
T2 sequence (P35503 29-534): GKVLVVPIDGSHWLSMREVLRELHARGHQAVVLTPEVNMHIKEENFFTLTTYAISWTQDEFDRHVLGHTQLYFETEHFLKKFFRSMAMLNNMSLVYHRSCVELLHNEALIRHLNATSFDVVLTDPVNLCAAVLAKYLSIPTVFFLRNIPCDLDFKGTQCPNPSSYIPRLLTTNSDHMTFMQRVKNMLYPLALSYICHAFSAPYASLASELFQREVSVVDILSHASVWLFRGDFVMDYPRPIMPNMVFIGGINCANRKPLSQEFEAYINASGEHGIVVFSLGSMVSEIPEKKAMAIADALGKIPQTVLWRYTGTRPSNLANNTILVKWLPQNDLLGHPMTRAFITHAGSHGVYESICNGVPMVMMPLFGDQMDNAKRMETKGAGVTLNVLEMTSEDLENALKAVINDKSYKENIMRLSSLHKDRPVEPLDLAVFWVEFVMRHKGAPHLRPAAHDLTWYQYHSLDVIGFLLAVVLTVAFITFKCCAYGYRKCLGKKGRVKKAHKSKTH

In the case of O=C(/C=C/c1cccc(S(=O)(=O)Nc2ccccc2)c1)NO [Belinostat, N-hydroxy-3-(phenylsulphamoylphenyl) acrylamide], the IC50 (HepG2 cells) is reported as 6.4 µM, the “belinostat converted to belinostat-G” value (UGT1A1; 2 h incubation with UGT1A1 supersomes) is reported as 73.6% and the “belinostat converted to belinostat-G” value (UGT1A1; 4 h incubation with UGT1A1 supersomes) is reported as 89.4%. The “glucuronidation of belinostat by UGT isoform” value (UGT1A1; UGT1A1 supersomes, 10 µM belinostat) was “glucuronidated belinostat significantly”, the “metabolism by UGT isoform” value (UGT1A3) was “less than 3%” and the “metabolism by UGT isoform” value (UGT1A8) was “less than 3%”. The “metabolism by UGT isoform” value (UGT2B4) was “less than 3%”, the tumor growth [1] was “Delay of tumor growth was observed” and the tumor growth [2] was “Growth inhibition was also observed”. The “histone H4 acetylation in PBMC” value ([3]; 1 and 2 hours after a single IP injection of 40 mg/kg) was “Hyperacetylated histone H4 was detected”, the “time at which acetylation returned to baseline levels” value ([3]; PBMC, single IP injection of 40 mg/kg) was at most 3 h and the “dose with marked acetylation in both PBMCs and tumor tissue” value ([3]; mice) was at least 10 mg/kg. For the same compound, the hemolysis [4] was “No hemolysis”, the drug accumulation [5] was “no clear indication of drug accumulation” and the “plasma t½” value [6] was “approximately 40 minutes”. The systemic effects [7] was “mild”, the “systemic and local irritation adverse events (lymphopenia, lymphoid atrophy, injection site reactions)” value ([8]; 50 mg/kg/day, arginine formulation) was “mild and fully reversible” and the “no-observable-effect-level (NOEL)” value ([8]; one study) was 10 mg/kg/day. The Cmax [9, 12] was 6565 ± 2158 ng/mL, the t1/2 [9, 12] was 46.6 ± 8.7 min and the Cmax [9, 13] was 15505 ± 6245 ng/mL. The t1/2 [9, 13] was 44.6 ± 8.0 min, the Cmax [9, 14] was 31177 ± 8968 ng/mL and the t1/2 [9, 14] was 43.4 ± 6.7 min. The “dose limiting toxicity (DLT)” value ([9]; 600 mg/m2/d, six patients, ref on-going phase 1) was “DLT of severe fatigue”, the Cmax [9, 15] was 53779 ± 6381 ng/mL and the t1/2 [9, 15] was 54.2 ± 8.7 min. For the same compound, the Cmax [9, 16] was 52362 ± 12724 ng/mL, the t1/2 [9, 16] was 85.5 ± 19.6 min and the tolerability ([9]; doses ranging from 150 – 1200 mg/m2, ref phase 1 study currently underway) was “generally been well tolerated”. The CYP2C8 inhibition (CYP2C8) was “weak to moderate inhibitor”, the light stability [10] was “no obvious light instability” and the maximum tolerable dose [11] was 1200 mg/m^2.
